From PMC11990924, “Inhibition of Tyrosinase and Melanogenesis by Carboxylic Acids: Mechanistic Insights and Safety Evaluation” (Molecules, 2025)
Like-named read-outs stand apart in the source and are kept apart here.

Columns and labels:
[1] = biological target: mushroom tyrosinase (Agaricus bisporus, UniProt C7FF04); experiment: Inhibition of mushroom tyrosinase activity (L-DOPA, OD475); format: biochemical; conditions: read-out: tyrosinase inhibition rate
Experimental: L-DOPA solution (5 mM) and tyrosinase (400 U/mL) (Sigma-Aldrich, St. Louis, MO, USA) were prepared in PBS buffer (pH 7.4) (Qingdao Hope Bio-Technology Co., Ltd., Qingdao, China). A reaction mixture was prepared by combining 240 μL of carboxylic acid at various concentrations, 360 μL of L-DOPA solution, and 120 μL of tyrosinase. […] Deionized water was used as the control.

[2] = biological target: T1, tyrosinase (Agaricus bisporus, UniProt C7FF04); experiment: Kinetic analysis of tyrosinase (Lineweaver–Burk); format: biochemical, mushroom; conditions: for Ki: GraphPad Prism, mixed-model or competitive model, read-out: inhibition constant (Ki); for inhibition mechanism: Lineweaver–Burk double-reciprocal plots; for inhibition constant (KIS) for enzyme–substrate complex: mixed-type inhibitors
T1 construct: purchased Sigma-Aldrich
T1 sequence (C7FF04 1-392 limits assumed): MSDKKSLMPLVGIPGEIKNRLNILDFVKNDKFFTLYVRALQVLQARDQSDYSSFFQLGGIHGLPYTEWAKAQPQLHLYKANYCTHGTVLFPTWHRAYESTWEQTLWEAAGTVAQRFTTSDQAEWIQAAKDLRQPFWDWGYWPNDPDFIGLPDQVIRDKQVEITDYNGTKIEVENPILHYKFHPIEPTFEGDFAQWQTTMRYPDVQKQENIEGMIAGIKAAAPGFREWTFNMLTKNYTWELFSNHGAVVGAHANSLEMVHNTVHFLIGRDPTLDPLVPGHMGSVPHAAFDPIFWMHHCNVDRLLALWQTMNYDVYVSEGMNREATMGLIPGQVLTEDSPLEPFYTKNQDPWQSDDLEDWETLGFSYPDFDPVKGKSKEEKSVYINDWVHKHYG
Experimental: L-DOPA solutions at various concentrations (0.5, 1, 2, and 4 mM) were prepared in PBS buffer (pH 7.4) and mixed with carboxylic acids at different concentrations and tyrosinase (final concentration of 60 U/mL). […] The reaction rates were calculated based on the OD values. To analyze the inhibition types of the four carboxylic acids on tyrosinase, double-reciprocal Lineweaver–Burk plots were constructed with 1/v (reaction rate) as the y-axis and 1/[S] (substrate concentration) as the x-axis. The maximum reaction velocity (Vmax) and Michaelis constant (Km) were determined using GraphPad Prism 10 (GraphPad Software, Massachusetts, USA).

[3] = pH of carboxylic acid mixed with PBS buffer, without tyrosinase; format: physicochemical; conditions: in PBS buffer, absence of tyrosinase
[4] = Cell viability of B16-F10 by MTT; format: cell-based; conditions: mouse, B16-F10 cells, 6 mM
Experimental: B16-F10 cells were seeded in 96-well plates at a density of 1 × 10^5 cells/mL and cultured at 37 °C with 5% CO2 for 24 h. Subsequently, various concentrations of carboxylic acids were added, and the cells were further incubated for 24 h. Then, 6 μL of MTT (5 mg/mL) was added, and the cells were cultured for an additional 4 h. Afterward, 200 μL of DMSO was added to dissolve the formazan crystals by gently pipetting up and down. The absorbance at 570 nm (OD570) was measured using a microplate reader (Infinite 200Pro, Tecan), with deionized water serving as the control. The cell viability was calculated with Equation (2): (2) [(OD570 of sample)/OD570 of control]×100%

[5] = system: B16-F10 cells; experiment: Melanin content analysis of B16-F10 cells (α-MSH stimulated); format: cell-based; conditions: Mus musculus; 6 mM, B16-F10, α-MSH 1 μM, 48 h; read-out: melanin inhibition rate
Experimental: A 900 μL cell suspension with an approximate density of 50% confluence was seeded into a 12-well plate and cultured for 24 h at 37 °C with 5% CO2. Subsequently, various concentrations of carboxylic acids were added, and the cells were further incubated for 1 h. Then, 1 μL of 1 mM α-melanocyte-stimulating hormone (α-MSH) solution was added to achieve a final concentration of 1 μM, and the cells were cultured for an additional 48 h at 37 °C with 5% CO2 to stimulate melanogenesis. Afterward, the cells were digested with trypsin, collected by centrifugation at 10,000 rpm for 5 min (Andreas Hettich GmbH & Co., KG, Tuttlingen, Germany), and the supernatant was discarded. Each tube was treated with 200 μL of 1 M NaOH solution and incubated in a water bath at 60 °C for 20 min. Following incubation, the samples were vortexed to ensure homogeneity, and 200 μL of each sample was transferred to a 96-well plate. The absorbance at 405 nm (OD405) was measured using a microplate reader (Infinite 200Pro, Tecan), and the data were recorded to calculate the melanin content, with deionized water serving as the control. The reduction in melanin content was calculated with Equation (3):(3) [(OD405 of control−OD405 of sample)/OD405 of control]×100%

[6] = biological target: tyrosinase from BioVision, Inc. (claimed to be of human origin); parameters: method as in PMID 38909081; conditions: cited from earlier work
[7] = system: rabbits and mice; conditions: in vivo; cited from earlier work

Sequence of mushroom tyrosinase (C7FF04 2-392): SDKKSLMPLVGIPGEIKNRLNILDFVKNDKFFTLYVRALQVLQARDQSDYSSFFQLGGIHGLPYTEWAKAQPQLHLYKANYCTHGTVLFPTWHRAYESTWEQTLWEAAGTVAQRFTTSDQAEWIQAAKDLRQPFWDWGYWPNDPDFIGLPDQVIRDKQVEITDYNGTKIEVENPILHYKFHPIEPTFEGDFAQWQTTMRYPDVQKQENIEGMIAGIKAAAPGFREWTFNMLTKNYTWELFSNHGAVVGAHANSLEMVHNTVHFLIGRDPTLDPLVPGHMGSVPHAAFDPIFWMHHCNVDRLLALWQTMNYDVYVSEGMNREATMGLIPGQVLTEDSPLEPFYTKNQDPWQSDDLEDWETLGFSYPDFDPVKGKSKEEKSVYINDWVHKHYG

inhibition at 6000 µM ([1]; 6 mM) [%]	SMILES	Ki [2] [µM]	inhibition mechanism [2]	inhibition constant (KIS) for enzyme–substrate complex [2] [mM]	pH ([3]; 6 mM)	viability at 24 h, 6 mM [4] [%]	inhibition at 6000 µM [5] [%]	inhibition at 6000 µM [1] [%]	pH ([3]; 3 mM)	IC50 [6] [µM]	oral LD50 [7] [mg/kg]
> 80	O=C(O)C(O)Cc1ccccc1 (centres unmarked) [3-phenyllactic acid]	1570	mixed-type inhibition	8.526	around 6	> 90	27.2	–	–	–	–
–	O=C(O)CC(O)C(=O)O (centres unmarked) [malic acid]	606	mixed-type inhibition	3.066	3.5	> 90	33.6	> 80	4.6	87.5	1600 to 3200
